Measurements from ChEMBL document CHEMBL1201862, “PubChem BioAssay data set” (2004).
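Assay format: 96-well plates, 48-hour exposure. Here, GI50 denotes the concentration required for 50% inhibition of growth.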 Calls of active or inactive are those of the source. Rule as the data show it: active = GI50 up to about 1.1 µM and inactive = higher.

How the values were obtained:
Test in all cases: NCI anticancer screen, dose series, 48 h
HOP-92 = test system: HOP-92
COLO 205 = test system: COLO 205
MDA-MB-435 = test system: MDA-MB-435
NCI-H460 = test system: NCI-H460
IGROV-1 = test system: IGROV-1
HCC 2998 = test system: HCC 2998
ACHN = test system: ACHN
MCF7 = test system: MCF7
SR = test system: SR
EKVX = test system: EKVX
HCT-15 = test system: HCT-15
PC-3 = test system: PC-3
HCT-116 = test system: HCT-116
DU-145 = test system: DU-145
TK-10 = test system: TK-10
786-0 = test system: 786-0
RXF 393 = test system: RXF 393
KM12 = test system: KM12
SW-620 = test system: SW-620
SF-539 = test system: SF-539
SF-295 = test system: SF-295
OVCAR-5 = test system: OVCAR-5
MDA-MB-231 = test system: MDA-MB-231
SF-268 = test system: SF-268
UO-31 = test system: UO-31
A498 = test system: A498
MOLT-4 = test system: MOLT-4
T47D = test system: T47D
A549 = test system: A549
U-251 = test system: U-251
SN12C = test system: SN12C
K562 = test system: K562
NCI-H226 = test system: NCI-H226
SNB-75 = test system: SNB-75
SK-OV-3 = test system: SK-OV-3
NCI/ADR-RES = test system: NCI/ADR-RES
RPMI-8226 = test system: RPMI-8226
OVCAR-4 = test system: OVCAR-4
HOP-62 = test system: HOP-62
CCRF-CEM = test system: CCRF-CEM
HT-29 = test system: HT-29
NCI-H23 = test system: NCI-H23
UACC-62 = test system: UACC-62
UACC-257 = test system: UACC-257
MDA-N = test system: MDA-N
OVCAR-8 = test system: OVCAR-8
Malme-3M = test system: Malme-3M
HL-60 = test system: HL-60
SK-MEL-5 = test system: SK-MEL-5
M14 = test system: M14
LOX IMVI = test system: LOX IMVI
CAKI-1 = test system: CAKI-1
SK-MEL-28 = test system: SK-MEL-28
NCI-H522 = test system: NCI-H522
SNB-19 = test system: SNB-19
OVCAR-3 = test system: OVCAR-3

For `O=C(Nc1nccs1)c1cc2c(cc1Cl)Sc1nccn1S2(=O)=O`, the GI50 (HOP-92) was 15.3 µM (inactive), the GI50 (COLO 205) was 16.7 µM (inactive) and the GI50 (MDA-MB-435) was 17.2 µM (inactive). For the same compound, the GI50 (NCI-H460) was 16 µM (inactive).
In the case of `CC(=O)OC(C)c1cc2c(s1)C(=O)c1c(C(C)OC(C)=O)csc1C2=O` (stereo not given), the GI50 (IGROV-1) is reported as 1.68 µM (inactive), the GI50 (HCC 2998) is reported as 1.73 µM (inactive) and the GI50 (ACHN) is reported as 1.42 µM (inactive). The GI50 (MCF7) was 0.662 µM (active), the GI50 (SR) was > 100 µM (inactive) and the GI50 (EKVX) was 1.74 µM (inactive). For the same compound, the GI50 (HCT-15) was 1.58 µM, the GI50 (PC-3) was 2.3 µM (inactive) and the GI50 (HCT-116) was 1.66 µM (inactive). The GI50 (DU-145) was 0.586 µM (active), the GI50 (HOP-92) was 3.29 µM (inactive) and the GI50 (TK-10) was 2.29 µM (inactive). For the same compound, the GI50 (786-0) was 1.89 µM (inactive), the GI50 (RXF 393) was 1.31 µM (inactive) and the GI50 (KM12) was 1.25 µM (inactive). For the same compound, the GI50 (SW-620) was 0.0545 µM (active), the GI50 (SF-539) was 1.11 µM (active) and the GI50 (SF-295) was 1.28 µM (inactive). The GI50 (OVCAR-5) was 1.97 µM (inactive), the GI50 (MDA-MB-231) was 1.55 µM (inactive) and the GI50 (SF-268) was 3.01 µM (inactive). The GI50 (UO-31) was 1.55 µM (inactive), the GI50 (A498) was 2.13 µM (inactive) and the GI50 (MOLT-4) was 1.95 µM (inactive). The GI50 (T47D) was 1.85 µM (inactive), the GI50 (A549) was 1.97 µM (inactive) and the GI50 (COLO 205) was 1.91 µM (inactive). For the same compound, the GI50 (U-251) was 1.18 µM (inactive), the GI50 (SN12C) was 0.682 µM (active) and the GI50 (K562) was 1.01 µM (active). The GI50 (NCI-H460) was 0.5 µM (active), the GI50 (NCI-H226) was 1.37 µM (inactive) and the GI50 (SNB-75) was 2.74 µM (inactive). The GI50 (SK-OV-3) was 3.6 µM (inactive), the GI50 (NCI/ADR-RES) was 1.26 µM (inactive) and the GI50 (RPMI-8226) was 1.43 µM (inactive). For the same compound, the GI50 (OVCAR-4) was 1.3 µM (inactive), the GI50 (HOP-62) was 1.24 µM (inactive) and the GI50 (CCRF-CEM) was 1.49 µM (inactive). For the same compound, the GI50 (HT-29) was 2.21 µM (inactive).
`Cn1c(=O)c2nc(Nc3ccccc3)[nH]c2n(C)c1=O` was tested, and the GI50 (NCI-H23) was > 10 µM (inactive), the GI50 (UACC-62) was > 10 µM (inactive) and the GI50 (IGROV-1) was > 10 µM (inactive). The GI50 (HCC 2998) was > 10 µM (inactive), the GI50 (UACC-257) was > 10 µM (inactive) and the GI50 (MCF7) was > 10 µM (inactive). The GI50 (SR) was > 10 µM (inactive), the GI50 (EKVX) was > 10 µM (inactive) and the GI50 (HCT-15) was greater than 10 µM. For the same compound, the GI50 (MDA-N) was > 10 µM (inactive), the GI50 (OVCAR-8) was > 10 µM (inactive) and the GI50 (PC-3) was > 10 µM (inactive). For the same compound, the GI50 (Malme-3M) was > 10 µM (inactive), the GI50 (DU-145) was > 10 µM (inactive) and the GI50 (HOP-92) was > 10 µM (inactive). For the same compound, the GI50 (TK-10) was > 10 µM (inactive), the GI50 (HL-60) was > 10 µM (inactive) and the GI50 (786-0) was > 10 µM (inactive). The GI50 (SK-MEL-5) was > 10 µM (inactive), the GI50 (RXF 393) was > 10 µM (inactive) and the GI50 (KM12) was > 10 µM (inactive). The GI50 (SW-620) was > 10 µM (inactive), the GI50 (SF-295) was > 10 µM (inactive) and the GI50 (MDA-MB-231) was > 10 µM (inactive). For the same compound, the GI50 (SF-268) was > 10 µM (inactive), the GI50 (MOLT-4) was > 10 µM (inactive) and the GI50 (T47D) was > 10 µM (inactive). For the same compound, the GI50 (M14) was > 10 µM (inactive), the GI50 (A549) was > 10 µM (inactive) and the GI50 (LOX IMVI) was > 10 µM (inactive). The GI50 (CAKI-1) was > 10 µM (inactive), the GI50 (COLO 205) was > 10 µM (inactive) and the GI50 (MDA-MB-435) was > 10 µM (inactive). For the same compound, the GI50 (SN12C) was > 10 µM (inactive), the GI50 (K562) was > 10 µM (inactive) and the GI50 (SK-MEL-28) was > 10 µM (inactive). For the same compound, the GI50 (SNB-75) was > 10 µM (inactive), the GI50 (SK-OV-3) was > 10 µM (inactive) and the GI50 (RPMI-8226) was > 10 µM (inactive). For the same compound, the GI50 (OVCAR-4) was > 10 µM (inactive), the GI50 (HOP-62) was > 10 µM (inactive) and the GI50 (CCRF-CEM) was > 10 µM (inactive). The GI50 (HT-29) was > 10 µM (inactive).
For `CCOC(=O)C(NC(=O)CC)(C(F)(F)F)P(=O)(OCC)OCC` (stereo not given), the GI50 (UACC-62) was > 100 µM (inactive), the GI50 (NCI-H522) was > 100 µM (inactive) and the GI50 (HCC 2998) was > 100 µM (inactive). For the same compound, the GI50 (ACHN) was > 100 µM (inactive), the GI50 (MCF7) was > 100 µM (inactive) and the GI50 (SR) was > 100 µM (inactive). For the same compound, the GI50 (EKVX) was > 100 µM (inactive), the GI50 (HCT-15) was greater than 100 µM and the GI50 (MDA-N) was > 100 µM (inactive). The GI50 (HCT-116) was > 100 µM (inactive), the GI50 (Malme-3M) was > 100 µM (inactive) and the GI50 (DU-145) was > 100 µM (inactive). For the same compound, the GI50 (HL-60) was > 100 µM (inactive), the GI50 (SF-539) was > 100 µM (inactive) and the GI50 (MDA-MB-231) was > 100 µM (inactive). For the same compound, the GI50 (SF-268) was > 100 µM (inactive), the GI50 (UO-31) was > 100 µM (inactive) and the GI50 (A498) was > 100 µM (inactive). For the same compound, the GI50 (MOLT-4) was > 100 µM (inactive), the GI50 (T47D) was > 100 µM (inactive) and the GI50 (M14) was > 100 µM (inactive). For the same compound, the GI50 (U-251) was > 100 µM (inactive), the GI50 (MDA-MB-435) was > 100 µM (inactive) and the GI50 (SN12C) was > 100 µM (inactive). For the same compound, the GI50 (K562) was > 100 µM (inactive), the GI50 (SK-MEL-28) was > 100 µM (inactive) and the GI50 (SNB-75) was > 100 µM (inactive). The GI50 (SK-OV-3) was > 100 µM (inactive), the GI50 (RPMI-8226) was > 100 µM (inactive) and the GI50 (HOP-62) was > 100 µM (inactive). The GI50 (CCRF-CEM) was > 100 µM (inactive) and the GI50 (HT-29) was > 100 µM (inactive).
With `CCC1=[N+]([O-])C(C)(C)NC1(C)C` the GI50 (NCI-H23) was > 10 µM (inactive), the GI50 (SNB-19) was > 10 µM (inactive) and the GI50 (IGROV-1) was > 10 µM (inactive). The GI50 (ACHN) was > 10 µM (inactive), the GI50 (EKVX) was > 10 µM (inactive) and the GI50 (HCT-15) was greater than 10 µM. For the same compound, the GI50 (MDA-N) was > 10 µM (inactive), the GI50 (OVCAR-8) was > 10 µM (inactive) and the GI50 (PC-3) was > 10 µM (inactive). The GI50 (HCT-116) was > 10 µM (inactive), the GI50 (DU-145) was > 10 µM (inactive) and the GI50 (HOP-92) was > 10 µM (inactive). The GI50 (TK-10) was > 10 µM (inactive), the GI50 (SK-MEL-5) was > 10 µM (inactive) and the GI50 (RXF 393) was > 10 µM (inactive). For the same compound, the GI50 (KM12) was > 10 µM (inactive), the GI50 (SW-620) was > 10 µM (inactive) and the GI50 (OVCAR-3) was > 10 µM (inactive). The GI50 (SF-539) was > 10 µM (inactive), the GI50 (SF-295) was > 10 µM (inactive) and the GI50 (OVCAR-5) was > 10 µM (inactive). For the same compound, the GI50 (MDA-MB-231) was > 10 µM (inactive), the GI50 (SF-268) was > 10 µM (inactive) and the GI50 (M14) was > 10 µM (inactive). For the same compound, the GI50 (A549) was > 10 µM (inactive), the GI50 (CAKI-1) was > 10 µM (inactive) and the GI50 (COLO 205) was > 10 µM (inactive). For the same compound, the GI50 (U-251) was > 10 µM (inactive), the GI50 (MDA-MB-435) was > 10 µM (inactive) and the GI50 (SN12C) was > 10 µM (inactive). The GI50 (SK-MEL-28) was > 10 µM (inactive), the GI50 (NCI-H226) was 4.95 µM (inactive) and the GI50 (SNB-75) was > 10 µM (inactive). The GI50 (NCI/ADR-RES) was > 10 µM (inactive), the GI50 (OVCAR-4) was > 10 µM (inactive) and the GI50 (HT-29) was > 10 µM (inactive).
